Results as given in ChEMBL document CHEMBL1255399, “Haemophilus influenzae clinical isolates with plasmid pB1000 bearing blaROB-1: fitness cost and interspecies dissemination” (2010).
≈ marks a conversion by molar mass, not a printed value.

Tests used:
Type in all cases: functional
Haemophilus influenzae [1] = assay: Antimicrobial activity against ampicillin resistant serotype-e Haemophilus influenzae isolate BB1053 harboring with plasmid pB1000 bearing beta-lactamase ROB-1 by broth microdilution method
Haemophilus influenzae [2] = assay: Antimicrobial activity against Haemophilus influenzae Rd KW20 by broth microdilution method
Haemophilus influenzae [3] = assay: Antimicrobial activity against ampicillin resistant nontypeable Haemophilus influenzae isolate BB1050 harboring with plasmid pB1000 bearing beta-lactamase ROB-1 by broth microdilution method
Haemophilus influenzae [4] = assay: Antimicrobial activity against Haemophilus influenzae Rd KW20 harboring with plasmid pB1000 bearing beta-lactamase ROB-1 by broth microdilution method
Haemophilus influenzae [5] = assay: Antimicrobial activity against ampicillin resistant nontypeable Haemophilus influenzae isolate BB1051 harboring with plasmid pB1000 bearing beta-lactamase ROB-1 by broth microdilution method
Haemophilus influenzae [6] = assay: Antimicrobial activity against ampicillin resistant nontypeable Haemophilus influenzae isolate BB1052 harboring with plasmid pB1000 bearing beta-lactamase ROB-1 by broth microdilution method

| Structure (SMILES) | MIC (Haemophilus influenzae [1]) [µg/mL] | MIC (Haemophilus influenzae [2]) [µg/mL] | MIC (Haemophilus influenzae [3]) [µg/mL] | MIC (Haemophilus influenzae [4]) [µg/mL] | MIC (Haemophilus influenzae [5]) [µg/mL] | MIC (Haemophilus influenzae [6]) [µg/mL] |
| --- | --- | --- | --- | --- | --- | --- |
| CC1(C)S[C@@H]2[C@H](NC(=O)[C@H](N)c3ccc(O)cc3)C(=O)N2[C@H]1C(=O)O [AMOXICILLIN] | > 64 | ≤ 0.5 | > 64 | > 64 | > 64 | > 64 |
| CC1(C)S[C@@H]2[C@H](NC(=O)[C@H](N)c3ccccc3)C(=O)N2[C@H]1C(=O)O [AMPICILLIN] | > 128 | ≤ 0.25 | > 128 | > 128 | > 128 | > 128 |
| C[C@H]1[C@H](NC(=O)/C(=N\OC(C)(C)C(=O)O)c2csc(N)n2)C(=O)N1S(=O)(=O)O [AZTREONAM] | ≤ 0.12 | ≤ 0.12 | ≤ 0.12 | ≤ 0.12 | ≤ 0.12 | ≤ 0.12 |
| N[C@@H](C(=O)N[C@@H]1C(=O)N2C(C(=O)O)=C(Cl)CS[C@H]12)c1ccccc1 [CEFACLOR ANHYDROUS] | 64 (≈ 174 µM) | 1 (≈ 2.72 µM) | 64 (≈ 174 µM) | 64 (≈ 174 µM) | 64 (≈ 174 µM) | 64 (≈ 174 µM) |
| C=CC1=C(C(=O)O)N2C(=O)[C@@H](NC(=O)/C(=N\OCC(=O)O)c3csc(N)n3)[C@H]2SC1 [CEFIXIME] | 0.06 (≈ 0.132 µM) | ≤ 0.03 | 0.06 (≈ 0.132 µM) | 0.06 (≈ 0.132 µM) | 0.06 (≈ 0.132 µM) | ≤ 0.03 |
| CO/N=C(\C(=O)N[C@@H]1C(=O)N2C(C(=O)O)=C(COC(C)=O)CS[C@H]12)c1csc(N)n1 [CEFOTAXIME] | ≤ 0.03 | ≤ 0.03 | 0.06 (≈ 0.132 µM) | – | ≤ 0.03 | ≤ 0.03 |
| CO/N=C(\C(=O)N[C@@H]1C(=O)N2C(C(=O)O)=C(COC(N)=O)CS[C@H]12)c1ccco1 [CEFUROXIME] | 4 (≈ 9.43 µM) | 0.5 (≈ 1.18 µM) | 4 (≈ 9.43 µM) | 4 (≈ 9.43 µM) | 4 (≈ 9.43 µM) | 4 (≈ 9.43 µM) |
| C[C@@H](O)[C@H]1C(=O)N2C(C(=O)O)=C(SCCNC=N)C[C@H]12 [IMIPENEM ANHYDROUS] | 0.5 (≈ 1.67 µM) | 0.5 (≈ 1.67 µM) | 2 (≈ 6.68 µM) | 1 (≈ 3.34 µM) | 0.5 (≈ 1.67 µM) | 1 (≈ 3.34 µM) |
| CC1(C)S[C@@H]2[C@H](NC(=O)Cc3ccccc3)C(=O)N2[C@H]1C(=O)O [PENICILLIN G] | > 256 | 0.5 (≈ 1.5 µM) | > 256 | > 256 | > 256 | > 256 |
